In ChEMBL document CHEMBL1201862, “PubChem BioAssay data set” (2004):
Calls of active or inactive are those of the source.

Assays:
Escherichia coli [1] = assay: microbe, parasite or virus in culture
Escherichia coli [2] = assay: microbe, parasite or virus in culture; remark: listed apart in the source
HEK293 [3] = assay: cells; details: Homo sapiens
HEK293 [4] = assay: cells; details: Homo sapiens; remark: listed apart in the source
Jurkat [5] = assay: SAR Analysis of small molecule inhibitors of T-cell specific antigen receptor-induced NF-kB activation in a Jurkat cell line using a luminescence assay - Set 2. [Related pubchem assays (depositor defined):AID435003, AID435012, AID465]; format: functional, cell-based; details: Homo sapiens
HEK293 [6] = assay: HEK293T cell viability loss, resazurin readout – resazurin fluorescence, cytotoxicity control for NF-kB activator project, SAR follow-up (AID 493251); format: functional, cell-based; details: Homo sapiens
HEK293 [7] = assay: SAR Analysis of small molecule inhibitors of T-cell specific antigen receptor-induced NF-kB activation in a HEK-293T cell line using a luminescence assay - Set 2. [Related pubchem assays (depositor defined):AID435003, AID435012, AID489026]; format: functional, cell-based; details: Homo sapiens
[8] = off-target signal loss in HeLa-CEM21 co-culture – HeLa F-luc CTL cells, cherry-picked, counter-screen for HIV-1 Env fusion inhibitor project, dose response (AID 652040); format: functional, cell-based;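 note: potency for signal decrease marking cytotoxic or nonspecific inhibition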
BJ [9] = assay: cells; format: functional, cell-based; details: Homo sapiens
[10] = luciferase reporter signal reduction – luminescence, H4-C neuroglioblastoma cells, dose response (AID 2458); format: functional, cell-based;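 note: H4 neuroglioblastoma cells stably carrying a luciferase reporter gene fusion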
INS1 = assay: INS-1E survival protection against cytokine death – cell-based, luminescence, retest, dose response (AID 449756); format: functional; details: Rattus norvegicus;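 note: cell death triggered by IL-1 beta plus TNF-alpha plus IFN-gamma mixture; protective hits raise ATP signal compared with cytokine alone wells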
[11] = alpha-synuclein stem-loop translation blockers – luminescence, H4 neuroglioblastoma cells, dose confirmation, confirmation (AID 2454); format: functional, cell-based;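 note: H4 neuroglioblastoma cells carrying an alpha-synuclein 5'UTR luciferase reporter; potency for inhibition of the luciferase signal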
[12] = HEK-293T viability loss, compound-treated – cell-based, uHTS hits, cytotoxicity control for B/T-cell NF-kB inhibitor project, dose response (AID 489019); format: functional;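 note: IC50 reflects cytotoxicity as loss of cell viability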
cells = format: functional, cell-based
BJ [13] = assay: BJ-TERT-LT-ST fibroblast viability loss – cell-based, RAS-independent, luminescence, dose response (AID 1935); format: functional; details: Homo sapiens;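 note: BJ fibroblasts immortalized with TERT plus LT and ST oncogenes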
[14] = luciferase reporter signal suppression in cells – H4 neuroglioma cells, luminescence, dose response (AID 1990); format: functional, cell-based
[15] = target: T1, Heat shock factor protein 1 (Mus musculus, UniProt P38532); assay: decrease of HSF1-responsive luciferase luminescence – cell-based, NIH3T3, dose retest, confirmation (AID 2382); format: functional;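 note: NIH3T3 fibroblasts with HSF1-driven luciferase reporter stressed by proteasome inhibitor MG132; luminescence from HSF1-driven luciferase expression after 8 hours of MG132 stress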
T1 sequence (P38532 whole entry): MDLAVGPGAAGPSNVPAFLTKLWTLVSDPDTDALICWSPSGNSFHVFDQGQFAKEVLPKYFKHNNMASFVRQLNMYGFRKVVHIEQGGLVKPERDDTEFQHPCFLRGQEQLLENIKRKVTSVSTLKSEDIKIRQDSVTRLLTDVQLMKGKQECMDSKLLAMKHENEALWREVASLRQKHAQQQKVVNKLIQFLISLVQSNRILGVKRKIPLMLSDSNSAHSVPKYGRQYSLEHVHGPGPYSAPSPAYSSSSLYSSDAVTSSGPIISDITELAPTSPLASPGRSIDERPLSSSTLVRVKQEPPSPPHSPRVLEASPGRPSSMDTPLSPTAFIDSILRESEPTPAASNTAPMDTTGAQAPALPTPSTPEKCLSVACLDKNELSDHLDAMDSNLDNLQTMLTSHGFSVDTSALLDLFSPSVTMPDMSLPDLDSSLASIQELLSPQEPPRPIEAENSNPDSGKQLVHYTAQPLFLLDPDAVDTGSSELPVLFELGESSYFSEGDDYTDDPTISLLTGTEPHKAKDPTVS

[16] = blockers of HIV-1 ZM109 envelope-driven cell-cell fusion – HeLa effector, CEM target cells, luciferase, cherry-pick, dose response (AID 652058); format: functional, cell-based;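 note: luciferase signal from HIV-1 Env mediated cell-cell fusion of effector and target cells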
[17] = HIV-1 AD8 envelope cell-cell fusion blockers – cherry-pick, dose response (AID 652062); format: functional, cell-based;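 note: luciferase signal from cell-cell fusion driven by HIV-1 clade B AD8 Env; potency is for inhibitors of fusion seen as a drop in luminescence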
[18] = blockers of HIV-1 envelope-mediated cell-cell fusion – cherry-pick, dose response (AID 652057); format: functional, cell-based
[19] = target: Luciferin 4-monooxygenase (Photinus pyralis, UniProt P08659); assay: inhibition of purified Photinus pyralis luciferase – biochemical, luminescence, dose response (AID 1891)
BJ [20] = assay: growth inhibition of engineered Ras-driven BJ cells – cell-based, alamar blue fluorescence, cherrypicked samples, dose response (AID 2631); format: functional; details: Homo sapiens;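 note: confirmatory dose-response assay in RAS-dependent BJ fibroblasts engineered with TERT, LT and ST, with cytotoxicity read by fluorescence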
BJ [21] = assay: BJ-TERT fibroblast viability loss – cell-based, RAS-independent, luminescence, dose response (AID 1933); format: functional; details: Homo sapiens
[22] = DRD fibroblast viability loss – cell-based, non-viral oncogenic, luminescence, dose response (AID 1934); format: functional; details: Homo sapiens
[23] = alpha-synuclein stem-loop luciferase translation blockers – H4 neuroglioma cells, luminescence, confirmation (AID 1988); format: functional, cell-based
Jurkat [24] = assay: blockers of NF-kB activation in T cells – Jurkat, luciferase reporter, luminescence, B- and T-cell, dose response (AID 489004); format: functional, cell-based; details: Homo sapiens;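 note: NF-kB luciferase reporter Jurkat cells stimulated with PMA plus ionomycin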
[25] = Luminescence Cell-Based Dose Response HTS to Identify Inhibitors of 5'UTR Stem-Loop Driven Prion Protein mRNA Translation in H4 Neuroglioblastoma Cells. [Related pubchem assays: 1827 (Project Summary), 1813 (Primary HTS)]; format: functional
[26] = viability loss in CEM21 cells – cell-based, CellTiter-Glo luminescence, cherry-picked, cytotoxicity control for viral fusion inhibitor project, dose response (AID 652042); format: functional;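 note: potency for signal decrease meaning cytotoxicity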
[27] = Luminescence Cell-Based Dose Confirmation HTS to Identify Inhibitors of Platelet Dense Granule Release. [Related pubchem assays: 1663 (Primary HTS), 1678 (Summary of Project)]; format: functional

Luciferin 4-monooxygenase, sequence (P08659 whole entry): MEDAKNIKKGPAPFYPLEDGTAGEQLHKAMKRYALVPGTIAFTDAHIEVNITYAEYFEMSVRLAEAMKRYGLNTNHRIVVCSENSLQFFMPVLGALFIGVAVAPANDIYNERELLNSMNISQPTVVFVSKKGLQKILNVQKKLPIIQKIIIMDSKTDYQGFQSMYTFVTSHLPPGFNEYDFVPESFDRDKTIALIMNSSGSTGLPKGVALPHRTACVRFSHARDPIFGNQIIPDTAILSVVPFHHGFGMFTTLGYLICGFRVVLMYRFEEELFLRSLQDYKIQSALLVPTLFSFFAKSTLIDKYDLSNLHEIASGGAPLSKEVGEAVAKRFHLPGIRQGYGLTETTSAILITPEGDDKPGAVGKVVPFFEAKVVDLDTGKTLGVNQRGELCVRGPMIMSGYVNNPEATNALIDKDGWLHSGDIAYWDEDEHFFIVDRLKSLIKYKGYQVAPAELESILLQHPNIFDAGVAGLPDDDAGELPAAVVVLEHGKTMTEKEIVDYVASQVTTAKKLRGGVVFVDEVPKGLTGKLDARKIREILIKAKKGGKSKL

With `Cc1cc(Cl)ccc1NC(=O)CN1CCCC1` as the molecule, how does the AC50 (Escherichia coli [1]) read?
The AC50 was 40000 nM (active).

With `O=C(CCc1ccccc1)N1CCN(Cc2ccc(F)cc2Cl)CC1` as the molecule, how does the AC50 (Escherichia coli [2]) read?
The AC50 was 66500 nM (active).

With `COc1ccc(CNCCc2c[nH]c3ccccc23)c(OC)c1OC` as the molecule, how does the EC50 (HEK293 [3]) read?
Its EC50 is > 59600 nM (inactive).

And the EC50 (HEK293 [4])?
Its EC50 is > 59600 nM (inactive).

With `COc1ccc(C)cc1NC(=O)c1ccc([N+](=O)[O-])o1` as the molecule, how does the IC50 (Jurkat [5]) read?
The IC50 was 6030 nM (active).

What about the IC50 (HEK293 [6]) of the same molecule?
Its IC50 is > 80000 nM (inactive).

And the IC50 (HEK293 [7])?
Its IC50 is 75600 nM (inactive).

Which results are given for `Nc1nc(F)nc2c1ncn2[C@@H]1O[C@H](CO)[C@@H](O)[C@H]1O`?
AC50 [8]: 1400 nM (active); EC50 (BJ [9]): 1350 nM (active); EC50 [10]: 199 nM (active); AC50 (INS1): 1350 nM (active); EC50 [11]: 70 nM (active); IC50 [12]: > 80000 nM (inactive); EC50 (cells): 84 nM (active); EC50 (BJ [13]): 460 nM (active); EC50 [14]: 242 nM (active); EC50 [15]: 5460 nM (active); AC50 [16]: < 260 nM (active); AC50 [17]: 1920 nM (active); AC50 [18]: 341 nM (active); EC50 [19]: > 112000 nM (not active); EC50 (BJ [20]): 348 nM (active); EC50 (BJ [21]): 124 nM (active); EC50 [22]: 674 nM (active); EC50 [23]: < 100 nM (active); IC50 (Jurkat [24]): 2350 nM (active); EC50 [25]: < 100 nM (active); AC50 [26]: 271 nM (active); EC50 [27]: < 88 nM (active)
